Consider 22 compounds from US10449182B2 (The Regents of the University of California, priority 2012, dated 2019).

In test [1] the test system is p21. The settings on record: Inoue et al. (2011) Cancer Biol. Ther.; cited from earlier work.
Test [2] relates to p21. Briefly: p21 levels by immunoblotting in ACHN and/or 786-O cells. Note: key: + denotes inhibition of p21 secretion or the absence of p21; − denotes the presence of p21. In kind it is cell-based, human. The settings on record: 24 h of culture with compound, immunoblot. Here is the method: Cells harvested after growth to confluence in 10% serum-containing media and treatment with compounds of the invention were washed with phosphate buffered saline (PBS) and lysed in lysis buffer composed of 50 mM HEPES, 1% Triton X-100, 10 mM sodium pyrophosphate, 100 mM sodium fluoride and 4 mM EDTA at 4° C. Cell lysates were pelleted. Supernatants were electrophoresed and immunoblotted. Membranes were blocked in 5% nonfat dry milk for 30 min at room temperature and probed with p21 antibody. Membranes were then probed with horseradish peroxidase tagged anti-mouse or anti-rabbit IgG antibodies (diluted 3:20,000 and 3:10,000 in 5% nonfat dry milk, respectively) for 2 h at room temperature. Signal was detected using enhanced chemiluminescence (ECL) solutions.
(In general: A western blot detects proteins with antibodies after separation by electrophoresis.)

A further test deals with T1, human sEH (Homo sapiens, UniProt P34913).
T1 sequence (P34913 1-555): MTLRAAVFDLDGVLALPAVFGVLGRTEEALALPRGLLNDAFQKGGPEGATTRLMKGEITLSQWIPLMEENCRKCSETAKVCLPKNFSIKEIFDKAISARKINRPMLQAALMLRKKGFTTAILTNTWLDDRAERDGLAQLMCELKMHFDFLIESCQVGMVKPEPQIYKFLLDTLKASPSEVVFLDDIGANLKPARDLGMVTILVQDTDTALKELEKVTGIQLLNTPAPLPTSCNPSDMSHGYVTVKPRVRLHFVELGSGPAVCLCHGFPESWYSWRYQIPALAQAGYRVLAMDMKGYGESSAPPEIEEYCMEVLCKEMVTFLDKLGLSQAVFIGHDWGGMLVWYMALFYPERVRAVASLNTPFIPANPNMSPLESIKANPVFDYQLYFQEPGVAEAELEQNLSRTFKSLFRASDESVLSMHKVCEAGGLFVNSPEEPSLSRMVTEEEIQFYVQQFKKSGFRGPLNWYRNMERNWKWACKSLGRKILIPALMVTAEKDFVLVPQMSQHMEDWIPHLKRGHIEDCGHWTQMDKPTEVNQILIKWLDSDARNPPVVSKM
Briefly: Inhibitory activity against human sEH. The settings on record: read-out: % Inhibition (IC50) Human sEH. In kind it is biochemical.

The target of a further test is T2, Raf-1 (Homo sapiens, UniProt P04049).
T2 construct: Full length recombinant Raf-I and b-Raf (V600E) kinases; purchased US Biological (Swampscott, Mass.)
Nature of the test: Recombinant Raf kinase inhibition (ADP-Glo Kinase Assay), Raf-1. It is filed as biochemical. The settings on record: 10 nM Raf kinase, 1 μM MEK-1, 10 μM ATP, 22° C., 1 hour. Here is the method:
(§1) All assays were performed using 10 nM Raf kinase, 1 μM MEK-1, 10 μM ATP, at 22° C. for 1 hour. Inhibitors were dissolved in DMSO and IC50 values were obtained by measuring the change in the ADP production (luminescent signal intensity) at various inhibitor concentrations as compared to the control. Individual data sets were performed in duplicate and each IC50 value was determined from three separate experiments. The data were fit to a saturation curve using KaleidaGraph graphing program (Synergy Software) to determine the IC50 values.
(In general: ADP-Glo turns the ADP formed in a reaction into a luminescent signal.)

A further test addresses T3, b-Raf (V600E) (Homo sapiens, UniProt P15056, V600E).
T3 construct: Full length recombinant Raf-I and b-Raf (V600E) kinases; purchased US Biological (Swampscott, Mass.)
Nature of the test: Recombinant Raf kinase inhibition (ADP-Glo Kinase Assay), b-Raf (V600E). It is filed as biochemical. The settings on record: 10 nM Raf kinase, 1 μM MEK-1, 10 μM ATP, 22° C., 1 hour. Here is the method: as §1

Test [3] has as its system p21. Briefly: Immunofluorescence staining of p21 in 786-O cells (FIG. 5). It is filed as cell-based, human. The settings on record: 10 μM, 24 h, confocal microscopy. Here is the method:
FIG. 5. […] 786-O cells were grown to confluence on 8-well chamber slides and treated with either Compound 2288 at 10 μM concentration or vehicle (DMSO) for 24 h. Immunofluorescence staining of p21 was visualized by confocal microscopy as described in Materials and Methods. p21 is green and the nuclear dye (DAPI) is blue. The experiment shown is representative of at least 3 separate experiments.
After appropriate treatments in 8 well chamber slides. immunofluorescence was conducted as described previously.^19 Briefly, the cells were fixed in 2% paraformaldehyde and blocked in the blocking buffer. After blocking, the cells were incubated with appropriate antibody, incubated with anti-mouse or anti-rabbit IgG (H+L), F(ab′)2 Fragment (Alexa Fluor® 488 Conjugate), and coverslipped with vectashield with DAPI. The specimens were examined by confocal microscopy.

Test [4] deals with p21. Nature of the test: Immunoblotting of p21 and other proteins in normal kidney and cancer cells (FIG. 2). The settings on record: HK2, 786-O, Caki-1, ACHN and Hey cells, 24 h, immunoblot. In kind it is cell-based, human. The protocol:
FIG. 2. […] The cells were harvested and immunoblotted with the antibodies indicated. (A) p21 and (B) p-Akt, p-ERK, t-Akt, t-ERK and p53 proteins are shown. β-actin is a loading control for each membrane. The experiment shown is representative of at least 3 separate experiments.
(§2) Immunoblotting was performed as previously described.^19 Briefly, after appropriate treatments, the cells were washed with phosphate buffered saline (PBS) and lysed in lysis buffer. Cell lysates were immunoblotted. Membranes were blocked in 5% nonfat dry milk for one hour at room temperature and probed with appropriate antibodies. Membranes were then probed with horseradish peroxidase tagged anti-mouse or anti-rabbit IgG antibodies. Signal was detected using ECL solutions.

Test [5] relates to p21. Nature of the test: p21 protein stability with CHX, immunoblotting in 786-O cells (FIG. 3B). The settings on record: 10 μM with CHX. It is filed as cell-based, human. The protocol:
(§3) FIG. 3. […] 786-O cells were grown to confluence in 10% serum containing media and: (A) treated with Compound 2288 at 10 μM concentration or vehicle (DMSO) for the indicated time. mRNA was isolated and RT-PCR was performed as described in Materials and Methods. GAP DH is a loading control. (B) exposed to CHX (35 μM), Compound 2288 (10 μM). CHX (10 μg/ml) and Compound 2288 (10 μM), or vehicle (DMSO) for the indicated times and immunoblotting was performed with the antibodies indicated. β-actin is a loading control. The experiments shown are representative of at least 3 separate experiments.
as §2

The test system of a further test is NCI60 cell lines. Briefly: Cell viability TCA assay in NCI60 cell lines (FIG. 4). It is filed as cell-based, human. The settings on record: 48 h. Here is the method: FIGS. 4A, 4B & 4C. […] TCA assay was conducted in the NCI60 cell lines treated with Compound 2288 as described in the Materials and Methods. Compound 2288 inhibited various cancer cell growth.
TCA assay was conducted by NCI Developmental Therapeutics Program. Briefly, cells were plated in 96-well plates, and after appropriate treatments, the plates are incubated for an additional 48 h at 37° C., 5% CO2. 95% air, and 100% relative humidity. The assay was terminated by the addition of cold TCA. Cells were fixed by the addition of 50 μl of cold 50% (w/v) TCA (final concentration, 10% TCA) and incubated for 60 minutes at 4° C. The plates were washed water and air dried. Sulforhodamine B (SRB) solution (100 μl) at 0.4% (w/v) in 1% acetic acid was added to each well, and plates were incubated for 10 minutes at room temperature. After staining, the plates were washed with 1% acetic acid and air dried. Bound stain was subsequently solubilized with 10 mM trizma base, and the absorbance was read on an automated plate reader at a wavelength of 515 nm.

The subject of the next test is p21 mRNA. Briefly: Reverse transcriptase-PCR of p21 mRNA in 786-O cells (FIG. 3A). In kind it is cell-based, human. The settings on record: 10 μM, RT-PCR. Here is the method:
as §3
Total mRNA was collected and cDNA synthesized using a Qiagen RNeasykit (Valencia, Calif.) following manufacture's protocol. The PCR primers used are 5′-[…]-3′ (p21 sense), 5′-[…]-3′ (p21 antisense), 5′-[…]-3′ (GAPDH sense), and 5′-[…]-3′ (GAPDH antisense). Reverse-transcribed cDNA was subjected to 40 cycles. Thermal cycling conditions are as follows: denaturation for 30 seconds at 94° C. annealing for 30 seconds at 56.5° C. and elongation for 1 minute at 72° C. DNA was analyzed by 2% ethidium bromide agarose gel electrophoresis.

T3 sequence (P15056 whole entry V600E): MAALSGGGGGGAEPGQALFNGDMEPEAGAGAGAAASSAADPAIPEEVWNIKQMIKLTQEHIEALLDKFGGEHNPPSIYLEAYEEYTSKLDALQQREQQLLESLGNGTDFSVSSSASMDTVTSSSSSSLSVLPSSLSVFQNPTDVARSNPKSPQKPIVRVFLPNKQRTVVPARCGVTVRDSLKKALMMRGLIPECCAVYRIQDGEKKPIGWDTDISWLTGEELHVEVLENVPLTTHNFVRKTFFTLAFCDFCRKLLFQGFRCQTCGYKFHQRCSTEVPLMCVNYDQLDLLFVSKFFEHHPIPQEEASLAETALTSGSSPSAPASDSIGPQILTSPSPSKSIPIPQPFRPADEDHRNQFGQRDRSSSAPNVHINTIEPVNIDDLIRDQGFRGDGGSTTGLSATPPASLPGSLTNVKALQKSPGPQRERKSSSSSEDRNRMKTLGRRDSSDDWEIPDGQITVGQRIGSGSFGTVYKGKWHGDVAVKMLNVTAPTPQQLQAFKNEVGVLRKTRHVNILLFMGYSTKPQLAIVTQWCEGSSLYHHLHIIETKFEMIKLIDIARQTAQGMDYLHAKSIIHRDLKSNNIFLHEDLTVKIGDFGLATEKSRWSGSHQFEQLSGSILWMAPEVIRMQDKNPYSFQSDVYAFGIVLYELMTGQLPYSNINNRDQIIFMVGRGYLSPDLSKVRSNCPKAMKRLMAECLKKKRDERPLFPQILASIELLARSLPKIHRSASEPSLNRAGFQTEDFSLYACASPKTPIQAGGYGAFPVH

For `CNC(=O)c1cc(Oc2ccc(NC(=O)Nc3ccc(Cl)c(C(F)(F)F)c3)cc2)ccn1` [Sorafenib, reference compound], in the test on p21 [1], the “p21 inhibition (reported)” value was “potent and stable p21 inhibitor”. For the same compound, the p21 inhibition result with p21 [2] is recorded as “+”. Consider `N#Cc1ccc(O[C@H]2CC[C@H](NC(=O)Nc3ccc(C(F)(F)F)cc3)CC2)cc1` [Compound 2579], for which the p21 inhibition result in the test on p21 [2] is on record as “+”.

Consider `CNC(=O)c1cc(O[C@H]2CC[C@H](NC(=O)Nc3ccc(Cl)c(C(F)(F)F)c3)CC2)ccn1` [Compound 2278], for which the p21 inhibition entry in the test on p21 [2] was “+”. On the same count and under the same terms, next, `CCN(CC)C(=O)c1cc(O[C@H]2CC[C@H](NC(=O)Nc3ccc(OC(F)(F)F)cc3)CC2)ccn1` [Compound 2577]: “+”; `CNC(=O)c1cc(O[C@H]2CC[C@H](NC(=O)Nc3ccc(OC(F)(F)F)cc3)CC2)ccn1` [Compound 2575]: “−”.

On to `CCN(CC)C(=O)c1cc(O[C@H]2CC[C@H](NC(=O)Nc3ccc(Cl)c(C(F)(F)F)c3)CC2)ccn1` [Compound 2574], for which, in the test on p21 [2], the p21 inhibition entry is recorded as “+”.

Broadly, the IC50 is the concentration needed to halve the response being measured. For the compound `CNC(=O)c1cc(O[C@H]2CC[C@@H](NC(=O)Nc3ccc(Cl)c(C(F)(F)F)c3)CC2)ccn1` [Compound 2319], the 50% inhibitory concentration (IC50) on human sEH was 0.0005 µM. In addition, the p21 inhibition result with p21 [2] is recorded as “+”.

Consider `CCC(=O)N1CCC(NC(=O)NC23CC4CC(CC(C4)C2)C3)CC1` [Compound 1163], for which the p21 inhibition result in the test with p21 [2] was “−”. On the same count and under the same terms, the entry for `O=C(Nc1ccc(OC(F)(F)F)cc1)N[C@H]1CC[C@H](Oc2ccnc(C(=O)N3CCCC3)c2)CC1` [Compound 2578] is “−”. Regarding `O=C(Nc1ccc(Cl)c(C(F)(F)F)c1)N[C@H]1CC[C@H](Oc2ccc(C(=O)O)cc2)CC1` [Compound 2221], the p21 inhibition entry with p21 [2] was “−”. Further, the IC50 at Raf-1 is 4.3 ± 0.4 µM. For the compound `CNC(=O)c1ccc(O[C@H]2CC[C@H](NC(=O)NC34CC5CC(CC(C5)C3)C4)CC2)cc1` [Compound 2225], in the test with p21 [2], the p21 inhibition entry was “−”.

On to `CS(=O)(=O)N1CCC(NC(=O)Nc2ccc(OC(F)(F)F)cc2)CC1` [Compound 1709], for which the p21 inhibition entry in the test on p21 [2] is “−”. On the same count and under the same terms, the entry for `CNC(=O)c1ccc(O[C@H]2CC[C@H](NC(=O)Nc3ccc(OC(F)(F)F)cc3)CC2)cc1` [Compound 2227] is “−”; for `N#Cc1ccc(O[C@H]2CC[C@H](NC(=O)Nc3ccc(OC(F)(F)F)cc3)CC2)cc1` [Compound 2581] it is “+”; for `O=C(NC12CC3CC(CC(C3)C1)C2)N[C@H]1CC[C@H](Oc2ccc(C(=O)O)cc2)CC1` [Compound 1471] it is “−”. In the case of `N#Cc1ccc(O[C@H]2CC[C@H](NC(=O)Nc3ccc(Cl)c(C(F)(F)F)c3)CC2)cc1` [Compound 2182], the p21 inhibition result in the test with p21 [2] is “+”. `CNC(=O)c1ccc(OC2CCC(NC(=O)Nc3ccc(Cl)c(C(F)(F)F)c3)CC2)cn1` (stereo not shown) [Compound 2316]: the half-inhibitory concentration (IC50) on b-Raf (V600E) amounted to 0.2 ± 0.15 µM; on human sEH, 0.0005 µM; on Raf-1 it was 0.175 ± 0.02 µM. Further, in the test on p21 [2], the p21 inhibition entry is reported as “+”. Take `O=C(Nc1ccc(OC(F)(F)F)cc1)N[C@H]1CC[C@H](Oc2ccc(C(=O)O)cc2)CC1` [Compound 1728]: the p21 inhibition entry with p21 [2] was “−”. Turning to `CNC(=O)c1ccc(O[C@H]2CC[C@H](NC(=O)Nc3ccc(Cl)c(C(F)(F)F)c3)CC2)cc1` [Compound 2253], the results for the concentration for half-maximal inhibition (IC50) on b-Raf (V600E), on human sEH and at Raf-1 were above 10 µM, 0.0005 µM and 0.34 ± 0.04 µM, respectively. In the test with p21 [2], the p21 inhibition entry is reported as “−”. Take `CNC(=O)c1cc(Oc2ccc(NC(=O)Nc3ccc(OC(F)(F)F)cc3)cc2)ccn1` [Compound 2576]: the IC50 was found to be 0.0005 µM at human sEH and 0.03 µM on Raf-1. The p21 inhibition result in the test on p21 [2] is “+”. For `CCC(=O)N1CCC(NC(=O)Nc2ccc(OC(F)(F)F)cc2)CC1` [Compound 1770], the p21 inhibition result with p21 [2] is on record as “−”. `O=C(Nc1ccc(Cl)c(C(F)(F)F)c1)N[C@H]1CC[C@H](Oc2ccc(C(F)(F)F)cn2)CC1` [Compound 2288]: the “cytosolic p21” value with p21 [3] is “decreases cytosolic p21”. The IC50 on human sEH amounted to 0.0005 µM. In addition, in the test on p21 [4], the “levels of other proteins (p-Akt, p-ERK, t-Akt, t-ERK, p53)” value is “not levels of other proteins” and the p21 protein level result was “consistently decreases p21 protein level”. The p21 protein stability entry in the test with p21 [5] was “no effect on p21 protein stability”. Moreover, in the test on p21 [2], the p21 inhibition entry is given as “+”. Further, the cancer cell growth result in the test on NCI60 cell lines is reported as “inhibits cancer cell growth”. In addition, the “p21 mRNA expression” value in the test on p21 mRNA is reported as “decreases p21 mRNA expression”.
